Measurements reported in patent US10472364B2 (Calithera Biosciences, Inc., priority 2016, dated 2019).

Target: endogenous, cell-bound CD73 on SK-MEL-28 cells (Homo sapiens (Human), UniProt P21589)
Experiment: Inhibition of endogenous, cell-bound CD73 enzyme activity in SK-MEL-28 cells (Malachite Green)
Format: cell-based
Conditions: 100 μM AMP, 30 minutes at room temperature
Method: The day before the experiment, 5000 cells were plated per well in a 96-well plate. Cells were washed twice with […] reaction buffer (20 mM HEPES, pH 7.4, 125 mM NaCl, 1 mM KCl, 2 mM MgCl2, 10 mM glucose) to remove residual inorganic phosphate. After washing, assays contained serial dilutions of test compounds and 100 μM of AMP in a total volume of 200 μL reaction buffer, with a final DMSO concentration≤0.5%. After 30 minutes at room temperature, supernatant was removed from the cells. […] The concentration of inorganic phosphate was determined using a phosphate standard curve to determine IC50.

endogenous, cell-bound CD73 on SK-MEL-28 cells, sequence (P21589 27-574): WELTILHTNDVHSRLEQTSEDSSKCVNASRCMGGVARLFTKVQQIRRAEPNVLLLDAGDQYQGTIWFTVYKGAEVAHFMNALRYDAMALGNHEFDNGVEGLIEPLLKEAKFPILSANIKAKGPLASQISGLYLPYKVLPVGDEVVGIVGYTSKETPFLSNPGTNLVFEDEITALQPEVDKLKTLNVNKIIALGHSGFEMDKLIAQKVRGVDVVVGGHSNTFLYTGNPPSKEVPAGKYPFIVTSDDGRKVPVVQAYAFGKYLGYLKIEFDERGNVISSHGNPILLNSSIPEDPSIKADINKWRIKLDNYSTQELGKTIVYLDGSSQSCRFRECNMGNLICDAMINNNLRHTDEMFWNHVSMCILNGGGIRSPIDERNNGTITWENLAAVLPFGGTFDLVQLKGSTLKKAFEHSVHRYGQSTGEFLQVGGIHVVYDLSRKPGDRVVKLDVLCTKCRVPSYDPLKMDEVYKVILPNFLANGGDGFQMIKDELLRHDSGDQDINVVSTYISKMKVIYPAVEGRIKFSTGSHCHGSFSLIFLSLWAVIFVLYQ

| Structure (SMILES) | IC50 [nM] |
| --- | --- |
| Nc1nc(Cl)nc2c1ncn2[C@@H]1O[C@H](COC(Cc2cc(-c3ccccc3)no2)(C(=O)O)C(=O)O)[C@@H](O)[C@@H]1F [compound 61, 2-(((2R,3R,4S,5R)-5-(6-amino-2-chloro-9H-purin-9-yl)-4-fluoro-3-hydroxytetrahydrofuran-2-yl)methoxy)-2-((3-phenylisoxazol-5-yl)methyl)malonic acid] | 6970 |
| COc1ccc(CC(OC[C@H]2O[C@@H](n3cnc4c(N)nc(Cl)nc43)[C@@H](F)[C@@H]2O)(C(=O)O)C(=O)O)cc1Cl [compound 85, 2-(((2R,3R,4S,5R)-5-(6-amino-2-chloro-9H-purin-9-yl)-4-fluoro-3-hydroxytetrahydrofuran-2-yl)methoxy)-2-(3-chloro-4-methoxybenzyl)malonic acid] | 1370 |
| Nc1nc(Cl)nc2c1ncn2[C@@H]1O[C@H](COC(Cc2ccccc2)(C(=O)O)C(=O)O)[C@@H](O)[C@H]1N [compound 55, 2-(((2R,3S,4R,5R)-4-amino-5-(6-amino-2-chloro-9H-purin-9-yl)-3-hydroxytetrahydrofuran-2-yl)methoxy)-2-benzylmalonic acid] | > 50000 |
| Nc1nc(Cl)nc2c1ncn2[C@@H]1O[C@H](COC(Cc2ccc(-c3ccccc3)cc2)(C(=O)O)C(=O)O)[C@@H](O)[C@@H]1F [compound 79, 2-([1,1′-biphenyl]-4-ylmethyl)-2-(((2R,3R,4S,5R)-5-(6-amino-2-chloro-9H-purin-9-yl)-4-fluoro-3-hydroxytetrahydro-furan-2-yl)methoxy)malonic acid] | 162 |
| Nc1nc(Cl)nc2c1ncn2[C@@H]1O[C@H](COC(Cc2ccc(Cl)cc2F)(C(=O)O)C(=O)O)[C@@H](O)[C@@H]1F [compound 80, 2-(((2R,3R,4S,5R)-5-(6-amino-2-chloro-9H-purin-9-yl)-4-fluoro-3-hydroxytetrahydrofuran-2-yl)methoxy)-2-(4-chloro-2-fluorobenzyl)malonic acid] | 177 |
| CCOC(=O)C(Cc1ccc(OC(F)(F)F)cc1)(OC[C@H]1O[C@@H](n2cnc3c(N)nc(Cl)nc32)[C@@H](F)[C@@H]1O)C(=O)O (single isomer, unassigned) [compound 37] | 598 |
| Nc1nc(Cl)nc2c1ncn2[C@@H]1O[C@H](COC(Cc2cccc(C(F)(F)F)c2)(C(=O)O)C(=O)O)[C@@H](O)[C@@H]1F [compound 16, 2-(((2R,3R,4S,5R)-5-(6-amino-2-chloro-9H-purin-9-yl)-4-fluoro-3-hydroxytetrahydrofuran-2-yl)methoxy)-2-(3-(trifluoromethyl)benzyl)malonic acid] | 1020 |
| Nc1nc(Cl)nc2c1ncn2[C@@H]1O[C@H](COC(Cc2ccc(CC(=O)O)cc2)(C(=O)O)C(=O)O)[C@@H](O)[C@@H]1F [compound 78, 2-(((2R,3R,4S,5R)-5-(6-amino-2-chloro-9H-purin-9-yl)-4-fluoro-3-hydroxytetrahydrofuran-2-yl)methoxy)-2-(4-(carboxymethyl)benzyl)malonic acid] | 234 |
| Nc1nc(Cl)nc2c1ncn2[C@@H]1O[C@H](COC(Cc2cnc(C(=O)O)s2)(C(=O)O)C(=O)O)[C@@H](O)[C@@H]1F [compound 67, 2-(((2R,3R,4S,5R)-5-(6-amino-2-chloro-9H-purin-9-yl)-4-fluoro-3-hydroxytetrahydro-furan-2-yl)methoxy)-2-((2-carboxythiazol-5-yl)methyl)malonic acid] | 1310 |
| Nc1nc(Cl)nc2c1ncn2[C@@H]1O[C@H](COC(Cc2ccc(C(F)(F)F)o2)(C(=O)O)C(=O)O)[C@@H](O)[C@@H]1F [compound 59, 2-(((2R,3R,4S,5R)-5-(6-amino-2-chloro-9H-purin-9-yl)-4-fluoro-3-hydroxytetrahydro-furan-2-yl)methoxy)-2-((5-(trifluoromethyl)-furan-2-yl)methyl)malonic acid] | 6980 |
| Nc1nc(Cl)nc2c1ncn2[C@@H]1O[C@H](COC(Cc2ccc3ccccc3c2)(C(=O)O)C(=O)O)[C@@H](O)[C@@H]1F [compound 17, 2-(((2R,3R,4S,5R)-5-(6-amino-2-chloro-9H-purin-9-yl)-4-fluoro-3-hydroxytetrahydrofuran-2-yl)methoxy)-2-(naphthalen-2-ylmethyl)malonic acid] | 1810 |
| Nc1nc(Cl)nc2c1ncn2[C@@H]1O[C@H](COC(Cc2ccc(OCC(F)(F)F)cc2)(C(=O)O)C(=O)O)[C@@H](O)[C@@H]1F [compound 89, 2-(((2R,3R,4S,5R)-5-(6-amino-2-chloro-9H-purin-9-yl)-4-fluoro-3-hydroxytetrahydrofuran-2-yl)methoxy)-2-(4-(2,2,2-trifluoroethoxy)benzyl)malonic acid] | 70 |
| Nc1nc(Cl)nc2c1ncn2[C@@H]1O[C@H](COC(Cc2cccc(F)c2)(C(=O)O)C(=O)O)[C@@H](O)[C@@H]1F [compound 44] | 1010 |
| Nc1nc(Cl)nc2c1ncn2[C@@H]1O[C@H](COC(Cc2cn[nH]c2)(C(=O)O)C(=O)O)[C@@H](O)[C@@H]1F [compound 64, 2-((1H-pyrazol-4-yl)methyl)-2-(((2R,3R,4S,5R)-5-(6-amino-2-chloro-9H-purin-9-yl)-4-fluoro-3-hydroxytetrahydrofuran-2-yl)methoxy)malonic acid] | 588 |
| Nc1nc(Cl)nc2c1ncn2[C@@H]1O[C@H](COC(Cc2cc(C(=O)O)no2)(C(=O)O)C(=O)O)[C@@H](O)[C@@H]1F [compound 83, 2-(((2R,3R,4S,5R)-5-(6-amino-2-chloro-9H-purin-9-yl)-4-fluoro-3-hydroxytetrahydrofuran-2-yl)methoxy)-2-((3-carboxyisoxazol-5-yl)methyl)malonic acid] | 5200 |
| Nc1nc(Cl)nc2c1ncn2[C@@H]1O[C@H](COC(Cc2ccc(-c3nnn[nH]3)cc2)(C(=O)O)C(=O)O)[C@@H](O)[C@@H]1F [compound 54, 2-(4-(1H-tetrazol-5-yl)benzyl)-2-(((2R,3R,4S,5R)-5-(6-amino-2-chloro-9H-purin-9-yl)-4-fluoro-3-hydroxytetrahydro-furan-2-yl)methoxy)malonic acid] | 973 |
| N#Cc1cccc(CC(OC[C@H]2O[C@@H](n3cnc4c(N)nc(Cl)nc43)[C@@H](F)[C@@H]2O)(C(=O)O)C(=O)O)c1 [compound 35] | 261 |
| Nc1nc(Cl)nc2c1ncn2[C@@H]1O[C@H](COC(Cc2ccc(CO)cc2)(C(=O)O)C(=O)O)[C@@H](O)[C@@H]1F [compound 39] | 493 |
| N#CCC(OC[C@H]1O[C@@H](n2cnc3c(N)nc(Cl)nc32)[C@@H](F)[C@@H]1O)(C(=O)O)C(=O)O [compound 33, 2-(((2R,3R,4S,5R)-5-(6-amino-2-chloro-9H-purin-9-yl)-4-fluoro-3-hydroxytetrahydrofuran-2-yl)methoxy)-2-(cyanomethyl)malonic acid] | 3380 |
| Nc1nc(Cl)nc2c1ncn2[C@@H]1O[C@H](COC(Cc2ccc3oc(C(=O)O)cc3c2)(C(=O)O)C(=O)O)[C@@H](O)[C@@H]1F [compound 88, 2-(((2R,3R,4S,5R)-5-(6-amino-2-chloro-9H-purin-9-yl)-4-fluoro-3-hydroxytetrahydro-furan-2-yl)methoxy)-2-((2-carboxybenzofuran-5-yl)methyl)malonic acid] | 443 |
| Nc1cccc(CC(OC[C@H]2O[C@@H](n3cnc4c(N)nc(Cl)nc43)[C@@H](F)[C@@H]2O)(C(=O)O)C(=O)O)c1 [compound 27] | 886 |
